Columns and labels:
[1] = test system: dandelion; experiment: Dandelion control, targeted applications on turfed terrain (damage rating 0-5, mortality %); type: in vivo, Taraxacum officinale; details: for control efficacy (damage rating and mortality percentage): 0.014 to 0.036 g/plant
Protocol: (§1) Control: eradication of weeds assessed, after a certain length of time, based on a visible damage rating of the foliage, varying from 0 to 5, and/or the mortality percentage observed on the treated plants.
The experiment was conducted using a randomized complete block design. Four repetitions were done for each treatment.
Dependent variable: mean damage rating (from 0 to 5) with the variation coefficient assessed after 42 days.
Dependent variable: Mean mortality percentage with the variation coefficient assessed after 42 days.
Treatment: solution of 4Cl-IAA applied at a dose of 0.03 g/plant containing 10% urea as co-ingredient
Dependent variable: mean damage rating (from 0 to 5)
The experiment was conducted using a randomized complete block design. Four repetitions were done for each treatment, except for 4Cl-IAA methyl ester, where three repetitions were done.
Treatment: the applied quantities varied from 0.014 to 0.036 g/plant, except for IAA, where the quantity was higher (0.2 g/plant) in light of the information found in the literature on the effect of the latter.
Dependent variable: mean damage rating (from 0 to 5) and mean mortality percentage assessed between 28 and 35 days after application

[2] = test system: barley; details: cited from earlier work; for quantity sufficient to affect the growth by 50%: barley (monocotyledonous), aqueous solution containing 10% ethanol
[3] = test system: plantain; experiment: Plantain control, second targeted application; type: in vivo, Plantago sp.; details: 0.015, 0.023 and 0.030 g/plant; without co-ingredient
Protocol: The experiment was conducted using randomized complete block design. Four repetitions were done for each treatment. Treatment: 4Cl-IAA without co-ingredient at three doses, i.e., 0.015, 0.023 and 0.030 g/plant Dependent variable: mean mortality percentage

[4] = Storage stability of finished product; type: physicochemical; details: finished product incorporating the molecule; room temperature
[5] = test system: peas and mustard; details: aqueous solution containing 10% ethanol; cited from earlier work
[6] = test system: dicotyledonous weed species; experiment: Weed species controlled with targeted applications (Example 10); type: in vivo; details: 0.022 to 0.036 g/plant; after 21 to 40 days depending on the species; weed species of Table 4
Protocol: The experiments were conducted according to completely randomized design and randomized complete block design with targeted applications for weed control on various terrain covered in turf.
Treatment: 4Cl-IAA without co-ingredient with doses varying from 0.022 to 0.036 g/plant
Variables: Observation of a damage rating above 4 and a mortality percentage above 80%, assessed after a period of 21 to 40 days, depending on the species.

[7] = test system: turf; experiment: Selectivity: turf impact rating (0-3), spreading applications; type: in vivo; details: for Turf impact rating: 100 mL/m^2, after 50 days
Protocol: Selectivity of the effect: absence of a pronounced effect of the herbicide on the desirable plants assessed based on an impact rating on the latter, varying from 0 to 3 in the case of turf.
(§2) The experiment was conducted using a randomized complete block design. Three repetitions were done for each treatment with surface areas of 0.5 m^2.
(§3) Treatment: 4Cl-IAA without co-ingredient with an application rate of 100 mL/m^2
(§4) Dependent variable: mean damage rating (from 0 to 5) of the dandelion and mean impact rating (from 0 to 3) on the turf assessed after 50 days
The experiment was conducted using a completely randomized design with surface areas of 2 m^2 per treatment.
Dependent variable: impact rating (from 0 to 3) on the turf assessed after 4 and 90 days

[8] = test system: dandelion; experiment: Dandelion control, spreading applications (damage rating 0-5); type: in vivo, Taraxacum officinale; details: 100 mL/m^2, after 50 days
Protocol: as §1, §2, §3, §4

[9] = Peroxide deterioration tests; type: physicochemical
[10] = test system: turf; experiment: Selectivity: turf impact rating (0-3), targeted applications; type: in vivo; details: doses below 0.1 g/plant; without co-ingredient; after 7 days; rating 0 to 3
Protocol: Selectivity of the effect: absence of a pronounced effect of the herbicide on the desirable plants assessed based on an impact rating on the latter, varying from 0 to 3 in the case of turf. [table] The experiment was conducted using a randomized complete block design. Five repetitions were done for each treatment. Treatment: 4Cl-IAA without co-ingredient Dependent variable: Impact rating (from 0 to 3) on the turf assessed after 7 days.

[11] = 28 to 35 days after application
[12] = 0.2 g/plant, 28 to 35 days after application

## COC(=O)Cc1c[nH]c2cccc(Cl)c12 [methyl ester of 4Cl-IAA]
[1]; [11]
  control efficacy (damage rating and mortality percentage): control efficacies close to those observed with a 2,4-D-based herbicide

## O=C(O)COc1ccc(Cl)cc1Cl [2,4-D, 2,4-dichlorophenoxyacetic acid, reference compound]
[2]
  quantity sufficient to affect the growth by 50%: 0.5 g/m^2

## O=C(O)Cc1c[nH]c2cccc(Cl)c12 [4Cl-IAA, 4-chloroindole-3-acetic acid]
[1]; [11]
  control efficacy (damage rating and mortality percentage): control efficacies close to those observed with a 2,4-D-based herbicide
[1]; after 3 days, solution containing 0.45% of 4Cl-IAA, rating 0 to 5
  damage rating: only a small effect
[1]; after 35 days, solution containing 0.45% of 4Cl-IAA, rating 0 to 5
  damage rating for dandelion control: 5
[1]; dose 0.0075 g per plant, without vs with chelating agent (HEDTA or EDDS), rating 0 to 5
  damage rating on dandelions: 3.1
[1]; doses below 0.01 g/plant, without co-ingredient, after 42 days
  decrease of the mortality percentage: about 50%
[3]
  control efficacy (mean mortality percentage), effect of a second application: pronounced improvement in the control efficacy
[4]
  stability in storage: stability over two years
[5]
  impact on the growth of dicotyledonous plants compared to 2,4-D: about 4 times lower
[2]
  quantity sufficient to affect the growth by 50%: 0.17 g/m^2
[2]; barley
  sensitivity of the monocotyledonous plant compared with 2,4-D: three times higher
[6]
  damage rating: above 4
  mortality percentage: above 80%
[7]; dose 0.25 g/m^2, after 4 days
  impact rating on the turf: 0
[7]; dose 0.25 g/m^2, after 90 days
  impact rating on the turf: 0
[7]; dose 0.3 g/m^2
  Turf impact rating: 0.7
[7]; dose 0.6 g/m^2
  Turf impact rating: 1.7
[7]; dose 0.6 g/m^2, after 4 days
  impact rating on the turf: 1
[7]; dose 0.6 g/m^2, after 90 days
  impact rating on the turf: 0
[7]; dose 0.9 g/m^2, after 4 days
  impact rating on the turf: 1
[7]; dose 0.9 g/m^2, after 90 days
  impact rating on the turf: 0
[7]; dose 1.0 g/m^2
  Turf impact rating: 1.7
[7]; dose 1.0 g/m^2, after 4 days
  impact rating on the turf: 2
[7]; dose 1.0 g/m^2, after 90 days
  impact rating on the turf: 0
[7]; dose 1.2 g/m^2
  Turf impact rating: 2.0
[7]; dose 1.2 g/m^2, after 4 days
  impact rating on the turf: 3
[7]; dose 1.2 g/m^2, after 90 days
  impact rating on the turf: 0
[8]; dose 0.3 g/m^2
  Dandelion damage rating: 3.0
[8]; dose 0.6 g/m^2
  Dandelion damage rating: 4.1
[8]; dose 1.0 g/m^2
  Dandelion damage rating: 3.8
[8]; dose 1.2 g/m^2
  Dandelion damage rating: 3.9
[9]
  stability in peroxide deterioration tests: a certain stability
[10]
  turf impact: zero to acceptable

## O=C(O)Cc1c[nH]c2ccccc12 [IAA, indole-3-acetic acid]
[1]; [12]
  mean damage rating: interesting damage rating
  mean mortality percentage: low mortality percentage
